Test results as given in patent US10464890B2, “PGAM1 inhibitors and methods related thereto” (Emory University, priority 2011, dated 2019).

Legend:
[1] = tested on: H1299 cells; test: Lactate production assay; format: cell-based, human
Experimental: Cellular lactate production was measured under normoxia with a fluorescence-based lactate assay kit (MBL). Phenol red-free RPMI medium without FBS was added to a 6 well-plate of subconfluent cells, and was incubated for 1 h at 37° C. After incubation, 1 ml of media from each well was assessed using the lactate assay kit. Cell numbers were counted by a microscope (×40). Oxygen consumption rates were measured with a Clark type electrode equipped with 782 oxygen meter (Strathkelvin Instruments). 1×10^7 cells were resuspended in RPMI 1640 medium with 10% FBS and placed into a water-jacked chamber RC300 (Strathkelvin Instruments) and recording was started immediately. Intracellular ATP concentration was measured by an ATP bioluminescent somatic cell assay kit (Sigma). 1×10^6 cells were trypsinized and resuspended in ultrapure water. Luminescence was measured with spectrofluorometer (SPECTRA Max Gemini; […]) immediately after the addition of ATP enzyme mix to cell suspension.

[2] = tested on: H1299 cells; test: Cellular 2-PG and 3-PG measurement; format: cell-based, human
Experimental: Cellular metabolites were extracted and spectrophotometrically measured as described previously with some modifications. To determine cellular concentration of 2-PG and 3-PG, 100 μL of packed cell pellets were homogenized in 1.5 ml of hypotonic lysis buffer (20 mM HEPES (pH 7.0), 5 mM KCl, 1 mM MgCl2, 5 mM DTT, and protease inhibitor cocktail). The homogenates were centrifuged in a cold room at 4° C. for 10 minutes at maximum speed, and the supernatants were applied to Amicon Ultra tubes with 10KDa cut off filter (Millipore). The flow through containing the metabolites was used for the measurement. NADH, ADP, and MgCl2 were added to the flow through to final concentrations of 0.14 mM, 1 mM, and 50 mM, respectively. Recombinant LDH and PKM1 proteins were added to final concentrations of 5 μg/ml and 10 μg/ml, respectively. Recombinant enolase protein was added to a final concentration of 50 μg/ml to measure cellular 2-PG. Once the reaction was initiated by enolase, a decrease in absorbance at 340 nm from NADH oxidation was measured by a DU800 spectrophotometer (Beckman). After termination of the enolase reaction, recombinant PGAM1 protein was added to a final concentration of 25 μg/ml and the decrease in absorbance at 340 nm was immediately monitored to measure cellular 3-PG. 100 μL of 2-PG and 3-PG (Sigma) diluted with 1.5 ml of hypotonic lysis buffer were used as the standards.
Alternatively, perchloric acid was used to quench metabolism and the acid extracts from H1299 cell lysates were then neutralized with KOH (DeBerardinis et al., 2007), followed by enzymatic reactions using the final supernatant to determine the 3-PG and 2-PG levels. An isotope-ratio based detection method was used to determine intracellular 3-PG and 2-PG levels in cells. In brief, pure standards were derivatized with a trimethylsilyl donor (Tri-Sil, Pierce) and used to determine the retention times of 2-PG and 3-PG on GC/MS. These standards were also used to identify parent ions containing all three 2-PG and 3-PG carbons on the derivatized molecule (m/z 459 for both 2-PG and 3-PG), and to generate algorithms for natural isotope abundance correction. Next, two dishes of H1299 cells were cultured in RPMI supplemented with [U-^13C]glucose so that approximately 25% of the total glucose pool was labeled. After 6 hours of culture, the cells were quickly rinsed in ice-cold normal saline, lysed in 1 mL of cold 50% methanol, and frozen in liquid nitrogen. […] The second sample was spiked with 25 nmoles of unlabeled 2-PG and 3-PG, derivatized, and analyzed by GC/MS. […] Assuming a 100 μL volume for the cell pellet, these figures correlate to intracellular concentrations of 66 μM for 2-PG and 81 μM for 3-PG, very close to the values measured by the enzymatic assay.

[3] = tested on: H1299 cells; test: Oxidative PPP flux assay using 14CO2 release; format: cell-based, human
Experimental: Cells were seeded on 6-cm dishes that are placed in a 10-cm dish with 2 sealed pinholes on the top. ^14CO2 released from cells was collected by completely sealing the 10-cm dish, in which the cells on the 6-cm dish were incubated in 2 ml of medium containing [1-^14C]- or [6-^14C]-glucose, respectively, at a final specific activity of 10 μCi/ml glucose at 37° C. for 3 h. The oxidative PPP flux was stopped by injecting 0.3 ml of 50% TCA through one of the holes on the top, and at the same time ^14CO2 released was trapped by injecting 0.3 ml of Hyamine Hydroxide into a small cup placed on the 10-cm dish through the second hole. Krebs cycle measurements, obtained in parallel samples incubated with [6-^14C]-glucose, were used to correct the oxidative PPP flux measurements obtained from samples incubated with [1-^14C]-glucose. Each dish was completely re-sealed with parafilm and incubated overnight at room temperature. Hyamine Hydroxide in the small cup was dissolved into 60% methanol and directly subjected to scintillation counting.

[4] = tested on: human primary leukemia cells; test: Primary leukemia cells from human patients; format: cell-based
Excerpt: Approval of use of human specimens was given by the Institutional Review Board of Emory University School of Medicine. All clinical samples were obtained with informed consent with approval by the Emory University Institutional Review Board. Clinical information for the patients was obtained from the pathological files at Emory University Hospital under the guidelines and with approval from the Institutional Review Board of Emory University School of Medicine and according to the Health Insurance Portability and Accountability Act. Only samples from patients that were not previously treated with chemotherapy or radiation therapy were used. Mononuclear cells (MNCs) were isolated from peripheral blood and bone marrow samples from human leukemia patients or peripheral blood samples from healthy donors using lymphocyte separation medium (Cellgro).
Only samples from patients that were not previously treated with chemotherapy or radiation therapy were used. Mononuclear cells (MNCs) were isolated from peripheral blood and bone marrow samples from human leukemia patients or peripheral blood samples from healthy donors using lymphocyte separation medium (Cellgro).

[5] = tested on: H1299 cells; test: 14C-lipid synthesis and 14C-RNA synthesis assays; format: cell-based, human
Experimental: ^14C-lipids synthesized from ^14C-glucose were measured. […] Wells were washed with an additional 500 μL of hexane:isopropanol solution, and extracts were combined and air dried with heat. Extracted lipids were resuspended in 50 μL of chloroform, and subjected to scintillation counting. Scintillation counts were normalized with cell numbers counted by a microscope (×40). ^14C-RNA synthesized from ^14C-glucose was measured. […] RNA was then extracted using RNeasy columns (Qiagen) and ^14C-RNA was assayed by scintillation counter. ^14C counts for each sample were normalized by the amount of RNA.

[6] = H1299 cells treated with PGMI-004A
[7] = primary leukemia cells from a representative AML patient
[8] = samples from 7 out of 8 leukemia patients
[9] = H1299 PGAM1 knockdown cells, methyl-2-PG

| Structure (SMILES) | lactate production [1, 6] | 2-PG levels [2, 6] | 3-PG levels [2, 6] | oxidative PPP flux [3, 6] | 2-PG levels [4, 7] | 3-PG levels [4, 7] | PGAM1 activity [4, 8] | cell viability [4, 8] | lactate production [4, 8] | biosynthesis of RNA [5, 6] | biosynthesis of lipids [5, 6] | lactate production ([1]; H1299 cells with stable knockdown of PGAM1, methyl-2-PG) | 2-PG cellular levels ([2]; diverse PGAM1 knockdown cancer cells treated with methyl-2-PG) | 3-PG concentrations ([2]; diverse PGAM1 knockdown cells treated with methyl-2-PG) | oxidative PPP flux [3, 9] | cell viability in PGMI-004A-treated primary leukemia cells ([4]; representative AML patients, methyl-2-PG added to PGMI-004A) | biosynthesis of RNA and lipids [5, 9] |
| --- | --- | --- | --- | --- | --- | --- | --- | --- | --- | --- | --- | --- | --- | --- | --- | --- | --- |
| O=C1c2ccccc2C(=O)c2c1cc(S(=O)(=O)Nc1ccc(C(F)(F)F)cc1)c(O)c2O [PGMI-004A, N-(4-trifluoromethyl)-penyl-3,4-dihydroxy-9,10-dioxo-2-anthracenesulfonamide] | significantly reduced lactate production | decreased | increased | decreased oxidative PPP flux | decreased | increased | reduced PGAM1 activity | decreased cell viability | reduced | reduced | reduced | – | – | – | – | – | – |
| COC(=O)[C@@H](CO)OP(=O)(O)O [methyl-2-PG, methyl ester of D(+)-2-phosphoglyceric acid, reference compound] | – | – | – | – | – | – | – | – | – | – | – | rescues the reduced lactate production | increased 2-PG cellular levels | decreased 3-PG concentrations | rescues the decreased oxidative PPP flux | rescues the decreased cell viability | rescues |
